Patent EP2276483B1, “SOLID FORMS COMPRISING (+)-2-[1-(3-ETHOXY-4-METHOXYPHENYL)-2-METHYLSULFONYLETHYL]-4-ACETYLAMINOISOINDOLINE-1,3-DIONE, COMPOSITIONS THEREOF, AND USES THEREOF” (CELGENE CORPORATION, priority 2008, dated 2009)

Columns and labels:
CD18 = test: fMLF-induced CD18 expression on neutrophils; format: cell-based; details: Neutrophil; human neutrophils; 30 nM fMLF
Method: CD18/CD11b (Mac-1) expression on neutrophils was measured as previously described (Derian et al., 1995, J. Immunol., 154:308-3 17) with the following modifications. Neutrophils were isolated as described above, then resuspended in complete medium at 1x10^6 cells/ml, pretreated with compounds at 10, 1, 0.1, 0.01, and 0 µM in duplicate at a final DMSO concentration of 0.1% for 10 minutes at 37°C 5%CO2. Cells were then stimulated with 30 nM fMLF for 30 minutes and then chilled to 4°C. Cells were treated with rabbit IgG (Jackson ImmunoResearch Labs, West Grove, PA, USA) (10 µg/1x10^6 cells) to block Fc receptors, stained with CD18-FITC and CD11b-PE (Becton Dickinson), and analyzed by flow cytometry on a FACSCalibur. CD18/CD11b expression (mean fluorescence) in the absence of stimulation was subtracted from all samples to obtain inhibition curves and calculate IC50 values.

[1] = test system: patients with severe plaque-type psoriasis; format: in vivo, human
[2] = biological target: T1, PDE6 from bovine retinal rod outer segments (Bos taurus, UniProt P11541+P23439); test: PDE6 enzyme assay; format: biochemical
T1 construct: PDE6 from bovine retinal rod outer segments; from tissue; host or cells: bovine retinal rod outer segments
T1 sequence (P11541 2-856 limits assumed): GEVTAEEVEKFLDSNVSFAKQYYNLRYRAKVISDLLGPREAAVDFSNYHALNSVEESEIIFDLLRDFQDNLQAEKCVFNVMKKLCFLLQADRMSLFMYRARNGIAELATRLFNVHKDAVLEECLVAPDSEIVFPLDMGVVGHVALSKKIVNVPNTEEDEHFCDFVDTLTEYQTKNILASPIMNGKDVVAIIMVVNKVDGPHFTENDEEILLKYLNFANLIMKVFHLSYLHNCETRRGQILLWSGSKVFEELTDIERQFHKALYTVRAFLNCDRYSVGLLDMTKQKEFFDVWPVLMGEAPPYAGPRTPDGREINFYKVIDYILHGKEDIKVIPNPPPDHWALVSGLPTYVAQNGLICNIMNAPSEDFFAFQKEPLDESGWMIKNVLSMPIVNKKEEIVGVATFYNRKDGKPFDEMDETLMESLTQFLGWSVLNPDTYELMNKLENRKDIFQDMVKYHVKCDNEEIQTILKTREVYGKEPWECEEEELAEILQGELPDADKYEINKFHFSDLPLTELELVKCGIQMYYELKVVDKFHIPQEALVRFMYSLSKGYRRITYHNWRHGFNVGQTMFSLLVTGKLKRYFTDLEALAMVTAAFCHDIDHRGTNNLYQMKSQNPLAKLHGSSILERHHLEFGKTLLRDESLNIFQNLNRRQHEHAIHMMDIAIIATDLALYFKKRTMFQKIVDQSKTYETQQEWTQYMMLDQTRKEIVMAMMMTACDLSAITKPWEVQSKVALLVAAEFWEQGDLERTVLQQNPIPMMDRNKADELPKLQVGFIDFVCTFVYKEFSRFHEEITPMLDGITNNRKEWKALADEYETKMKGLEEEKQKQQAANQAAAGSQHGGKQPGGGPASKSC
T1 sequence (P23439 2-850 limits assumed): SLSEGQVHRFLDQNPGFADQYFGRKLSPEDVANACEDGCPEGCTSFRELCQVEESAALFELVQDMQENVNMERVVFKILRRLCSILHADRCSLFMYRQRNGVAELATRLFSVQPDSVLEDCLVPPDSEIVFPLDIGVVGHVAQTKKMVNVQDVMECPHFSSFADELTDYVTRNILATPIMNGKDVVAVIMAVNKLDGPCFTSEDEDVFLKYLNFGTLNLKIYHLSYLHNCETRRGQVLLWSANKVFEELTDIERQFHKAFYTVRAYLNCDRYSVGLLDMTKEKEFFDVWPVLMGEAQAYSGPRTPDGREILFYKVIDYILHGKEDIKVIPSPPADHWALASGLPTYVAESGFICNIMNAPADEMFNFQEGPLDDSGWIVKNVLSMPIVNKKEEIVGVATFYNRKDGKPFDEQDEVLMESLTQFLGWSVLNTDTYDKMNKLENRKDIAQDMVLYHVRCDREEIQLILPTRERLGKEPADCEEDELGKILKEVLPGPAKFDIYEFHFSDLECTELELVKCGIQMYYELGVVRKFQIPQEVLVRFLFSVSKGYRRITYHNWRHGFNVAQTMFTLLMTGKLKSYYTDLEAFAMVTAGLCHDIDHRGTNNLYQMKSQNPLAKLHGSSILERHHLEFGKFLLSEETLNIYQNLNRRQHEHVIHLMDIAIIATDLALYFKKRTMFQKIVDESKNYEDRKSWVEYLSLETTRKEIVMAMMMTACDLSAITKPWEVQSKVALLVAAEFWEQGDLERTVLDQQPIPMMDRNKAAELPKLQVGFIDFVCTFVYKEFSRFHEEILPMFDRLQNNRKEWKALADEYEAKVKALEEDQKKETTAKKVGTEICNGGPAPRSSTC

[3] = Nonresponder, 20 mg orally daily, signed change

`CCOc1cc(C(CS(C)(=O)=O)N2C(=O)c3cccc(NC(C)=O)c3C2=O)ccc1OC` (single isomer, unassigned; (+)) [Compound A, (+)-2-[1-(3-ethoxy-4-methoxyphenyl)-2-methylsulfonylethyl]-4-acetylaminoisoindoline-1,3-dione] was tested, and the IC50 (CD18) was 390 nM, the “treatment-related adverse event: headache” value ([1]; 20 mg orally daily for 29 days) was 26.3% and the “treatment-related adverse event: nausea” value ([1]; 20 mg orally daily for 29 days) was 15.8%. For the same molecule, the “patients demonstrating a 20% reduction in epidermal skin thickness” value ([1]; 20 mg orally daily for 29 days, Day 29, 8 of the 15 patients with evaluable biopsies) was 53.3%, the “mean reduction of epidermal thickness” value ([1]; 20 mg orally daily, Day 29, all 15 subjects with evaluable biopsies, p=0.015) was 20.5% and the “safety in subjects with severe plaque-type psoriasis” value ([1]; 20 mg p.o. QD for 29 days) was “safe”. For the same molecule, the “patients demonstrating improvement in the static Physician's Global Assessment (sPGA)” value ([1]; 9 of the 17 evaluable patients, 29 days of treatment) was 52.9%, the “patients showing a reduction from baseline in psoriasis body surface area (BSA)” value ([1]; 10 of the 17 evaluable patients, 29 days of treatment) was 58.8% and the “patients showing a >50% reduction from baseline in total PASI score” value ([1]; Day 29, 3 patients of 19 enrolled) was 15.8%. The “subjects demonstrating improvement in their PASI” value ([1]; Day 29, 14 of the 19 subjects enrolled) was 73.7%, the “enrolled patients showing a reduction from baseline in psoriasis body surface area (BSA)” value ([1]; Day 29, of enrolled patients) was 52.6% and the “enrolled patients showing an improvement in their sPGA” value ([1]; Day 29, of enrolled patients) was 47.4%. For the same molecule, the “Percentage Reduction of Key Inflammatory Markers at Day 29: CD11c, Dermis” value [1, 3] was -21.19%, the “Percentage Reduction of Key Inflammatory Markers at Day 29: CD11c, Epidermis” value [1, 3] was -2.54% and the “Percentage Reduction of Key Inflammatory Markers at Day 29: CD83+, Dermis” value [1, 3] was “+0.46%”. For the same molecule, the “Percentage Reduction of Key Inflammatory Markers at Day 29: CD83+, Epidermis” value [1, 3] was -16.31%, the “Percentage Reduction of Key Inflammatory Markers at Day 29: T-cells, Dermis” value [1, 3] was -17.34% and the “Percentage Reduction of Key Inflammatory Markers at Day 29: T-cells, Epidermis” value [1, 3] was “+8.74%”. The “reduction of mRNA expression of iNOS” value ([1]; lesional skin after 29 days of treatment, RT-PCR, p=0.025) was 66.5%, the “PDE Specificity Ratio PDE4/PDE6” value ([2]; from above data) was greater than 40000 fold and the inhibition at 10 µM ([2]; read-out: PDE6 (% inhib at 10 µM)) was -6%.
